Measured values: article PMC2652713, “Molecular Blocking of CD23 Supports Its Role in the Pathogenesis of Arthritis” (PLoS ONE, 2009)

Columns and labels:
human CD23 = test: Flow cytometry, inhibition of anti-CD23-FITC McAb binding to human macrophages; conditions: human PBL-derived CD23+ macrophages, p30A 10 µg/ml pre-incubation, anti-CD23-FITC 20 µg/ml
Procedure: (§1) Figure 1 Specific blockade of CD23 reactivity by p30A. Flow cytometry analysis showing the inhibition of (A) anti-CD23-FITC (20 µg/ml) or (B) IgE (10 µg/ml)/anti-IgE-FITC (1 µg/ml) binding to CD23^+ human PBL-derived macrophages (red lines) or following their pre-incubation with p30A peptides (10 µg/ml) (blue lines). (C) CD23 western blot was performed on total protein extract from à CD23^+ B-cell line. The detection with CD23-McAb followed the pre-incubation of the blot with or without p30A (10 µg/ml). Similar protein quantity (50 µg) was used for each western blot condition.

[1] = Weight and intestinal bleeding in AIA rats; format: in vivo, rat, Female Lewis; conditions: 50 days, data not shown
Procedure: Adjuvant arthritis was induced in six week-old animals by subcutaneous injection at the base of the tail of 300 µl containing 1.8 mg of inactivated Mycobacterium butyricum (Difco Laboratories, Detroit, MI) diluted in emulsion of 8 ml Vaseline, 1 ml polysorbate 80, and 1 ml PBS (Phosphate Buffer Saline, Eurobio). Rats were boosted one week later following the same procedure. Observation was conducted for up to 50 days following immunization for clinical signs of arthritis. Rats were divided in different groups of 8 rats. Groups were treated with five injections (every 2 days) of either p30A (10, 50 or 100 mg in a PBS solution), pCtl, hydrocortisone (Sigma Aldrich) or PBS solution. Injections were initiated two days after the appearance of first arthritic symptoms (therapeutic) or on the first day of immunization (preventive). […] The severity of AIA in each paw was quantified daily using an ordinal clinical score measurement from 0 to 4 as follows: no signs of inflammation ( = 0); swelling alone (>2 fold paw diameter) ( = 1) or swelling/immobility ( = 2) of one paw; swelling ( = 3) or swelling/immobility ( = 4) of two paws. Weight evolution of rats was measured daily. […] Quantification of TNF-α and IL-1β in rat cell supernatants was performed using appropriate ELISA kits and according to manufacturer's recommendations (Biosource, Montrouge, France).

[2] = system: peritoneal macrophages of AIA rats; test: Ex vivo cytokine release from peritoneal macrophages of treated AIA rats, ELISA; format: in vivo, rat, Female Lewis; conditions: cells collected 50 days post-immunization, 48 h culture, 4 rats
Procedure: AIA rats were treated either after (AIA+p30A) or before (p30A+AIA) the onset of symptoms. Treatment consisted of p30A (10 mg/rat) or hydrocortisone (HC, 30 mg/rat). Rat peritoneal macrophages were collected following 50 days post-immunization, washed and re-incubated in culture medium alone. Cell supernatants were collected 48 h later and cytokine levels were quantified. Macrophages from healthy rats were also incubated in similar conditions. Values are mean±s.d. of cells from 4 different rats.
Adjuvant arthritis was induced in six week-old animals by subcutaneous injection at the base of the tail of 300 µl containing 1.8 mg of inactivated Mycobacterium butyricum (Difco Laboratories, Detroit, MI) diluted in emulsion of 8 ml Vaseline, 1 ml polysorbate 80, and 1 ml PBS (Phosphate Buffer Saline, Eurobio). Rats were boosted one week later following the same procedure. Observation was conducted for up to 50 days following immunization for clinical signs of arthritis. Rats were divided in different groups of 8 rats. Groups were treated with five injections (every 2 days) of either p30A (10, 50 or 100 mg in a PBS solution), pCtl, hydrocortisone (Sigma Aldrich) or PBS solution. Injections were initiated two days after the appearance of first arthritic symptoms (therapeutic) or on the first day of immunization (preventive). […] Rats were sacrificed 50 days after AIA induction. Peritoneal macrophages were collected and incubated in culture medium alone for 48 h. Quantification of TNF-α and IL-1β in rat cell supernatants was performed using appropriate ELISA kits and according to manufacturer's recommendations (Biosource, Montrouge, France).

human CD23+ macrophages = test: IgE-mediated activation of human CD23+ macrophages; format: cell-based
Procedure: Monocytes or macrophages were activated through CD23 pathway: while monocytes/macrophages from RA patients express CD23, monocytes from healthy donors must be pre-activated to express surface CD23 as described. This pre-activation was obtained by incubation of healthy monocytes with recombinant human IL-4 (20 ng/ml) during 48 h at 37°C; After washing, all cell populations were tested by flow cytometry for their surface CD23 expression (>80% CD23^+) and then incubated in the presence of cross-linking CD23-MAb (clones 135 or DM2, IgG1k, 20 µg/ml) during 48–72 h, or IgE and anti-IgE as described, [17]. When indicated, peptides were added to the cells 2 h prior to their activation. Cells supernatants were then analyzed for their nitric oxide content (see below) and for the presence of cytokines: levels of TNF-α and IL-6 were determined in duplicates for each sample by a specific ELISA (R&D, Paris, France) while levels of IL-1β, IL-8 and IL-10 was determined using FlowCytomix Human Th1/Th2 Kit as recommended (Bender Medsystems, Vienna, Austria).

soluble and surface CD23 = test: Interaction of p30A with soluble and surface CD23 (inferred); format: binding, human
Procedure: as §1
As control (pCtl), we have used synthetic heptapeptide with unrelated sequence (SFNYNYA).
Total cellular proteins were isolated from CD23^+, ADAM B-cell line in cell lysis buffer (10 mM Tris pH 8.0, 150 mM NaCl, 5 mM EDTA, 1% Triton X-100, 0.05% SDS, 10 mM Sodium Fluoride, 1 mM Sodium Orthovanadate, 5 µM Molibdic Acid) and a mixture of protease inhibitors (all from Sigma Aldrich, Saint Quentin Fallavier, France). Protein concentration was determined using the Bradford assay (Bio Rad, Hemel Hempstead, UK). Protein samples (50 µg total protein) were subjected to SDS-PAGE using a 12% resolving gel. […] Immunoreactive bands (CD23 and Bcl2) were detected using the FluorChem 8800 (Alpha Innotech, San Leandro, USA) and semi-quantified by densitometry using AlphaEase FC (Alpha Innotech).

[3] = treatment before onset of symptoms (p30A+AIA, 10 mg/rat)

FHENWPS [p30A]
inhibition of FITC-conjugated anti-CD23 McAb binding (human CD23): inhibits the binding of FITC-conjugated anti-CD23 McAb | intestinal bleeding [1]: neither intestinal bleeding was observed | weight loss [1]: no weight loss | TNFα release ex vivo, therapeutic ([2]; treatment after onset of symptoms (AIA+p30A, 10 mg/rat)): dramatically reduced both IL-1β and TNFα levels | IL-1β release ex vivo, therapeutic ([2]; treatment after onset of symptoms (AIA+p30A, 10 mg/rat; HC 30 mg/rat)): dramatically reduced both IL-1β and TNFα levels | IL-1β release ex vivo, preventive [2, 3]: dramatically reduced both IL-1β and TNFα levels | TNFα release ex vivo, preventive [2, 3]: dramatically reduced both IL-1β and TNFα levels | IgE-mediated activation of human CD23+ macrophages (human CD23+ macrophages): decreased IgE-mediated activation of both human and rat CD23^+ macrophages | binding to human CD23 (soluble and surface CD23): specifically bound human and rat CD23 | affinity of interaction with soluble and surface CD23 relative to McAb or IgE-anti-IgE (soluble and surface CD23; authors' inference from Figure 1A-C, Kd not given): interacts with both soluble and surface CD23 forms with a higher affinity than specific McAb or IgE-anti-IgE immune complexes
